Patent publication US7763287B2, “Extract of Cercis chinensis having anti-oxidant activity and anti-aging activity, and cosmetical composition containing the extract for anti-oxidation, skin-aging protection and wrinkle improvement” (Hankook Pharm. Co., Inc., priority 2002, dated 2010)

How the values were obtained:
[1] = Nitric oxide scavenging activity; format: biochemical
[2] = Superoxide radical scavenging activity (xanthine/xanthine oxidase, NBT); format: biochemical; conditions: Table 6
Experimental: Superoxide radical (O^2−) itself has a little reactivity, but is easily changed into H2O2 that generates hydroxyl radical having strong reactivity or is reacted with nitric oxide (NO.) to generate peroxy nitrite (ONOO^−) having strong reactivity, too. Thus, it might be a reason for oxidation of SH-group, nitration of protein tyrosine, lipid peroxidation and DNA damage. […] Basically, measurement of superoxide radical scavenging activity was performed by investigating the activity of superoxide dismutase (SOD), an enzyme scavenging superoxide by dismutation of the same. In the present invention, an activity of a sample to inhibit superoxide production by the enzyme reaction of xanthine/xanthine oxidase and its another activity to inhibit reaction (NBT+20^2−→NBTH2+2O2) generating formazan by reduction of nitro blue tetrazolium (referred as ‘NBT’ hereinafter) were measured. Particularly, wells of a 96-well plate were supplemented with 50 μl of 4 mM xanthine (Sigma), 50 μl of […] NBT (Sigma), 50 μl of 50 mM phosphate buffer (pH 7.8, 1 mM EDTA) and 10 μl of each sample, into which 40 μl of xanthine oxidase was added to induce a reaction. After the reaction was completed, each reaction solution was collected as scheduled, and OD550 was measured with an ELISA reader. […] Superoxide Radical Scavenging Activity (%)=(Acontrol−Asample)/(Acontrol−Ablank)×100 <Mathematical Formula 4> […]

[3] = system: HEK-N/F cells; experiment: Cell protection from UV irradiation (DNA damage, ethidium homodimer fluorescence); format: cell-based, human; conditions: 35 mJ/cm^2 UVB, Et2 fluorescence (DNA damage)
Experimental: UV irradiation induces DNA damage and DNA-protein connection by increasing active oxygen in cells. When HEK-N/F cells were irradiated by 35 mJ/cm^2 of UVB, DNA chains in nucleus were cut. After uniting the broken chains to ethidium homodimer (Et2), a DNA chain intercalating fluorescent dye, extent of fluorescence was measured to quantify the amount of DNA damage. Particularly, HEK-N/F cells were cultured on serum-free KGM medium (Clonetics), which were inoculated into wells of a 24-well plate by 0.5−4×10^4 cells/2 cm^2. Then, the cells were cultured for 18 hours, after which a sample was treated thereto for 2 hours. […] The cells exposed on UV were further cultured for 1-7 hours, and then, […] ethidium homodimer (Et2, Millipore) was added. 30 minutes later, fluorescence was measured with Millipore microplate fluorometer Cytofluor 2350 (excitation: 485 nm, emission: 645 nm).

Structure (SMILES): O=c1c(O)c(-c2cc(O)c(O)c(O)c2)oc2cc(O)cc(O)c12 [Chemical Formula 9, myricetin]
- Nitric oxide scavenging activity (in words) [1]: comparatively high nitric oxide scavenging activity
- Superoxide radical scavenging activity IC50 [2]: 12.1 ± 1.1 µg/mL
- fluorescence lower than that of a control [3]: 54.7%
